Reference: article PMC7023232, “Polymer Cancerostatics Containing Cell-Penetrating Peptides: Internalization Efficacy Depends on Peptide Type and Spacer Length” (Pharmaceutics, 2020)
Where two headings read alike, the source gives them in different places.

Tests used:
Assay type in all cases: cell-based, human
HeLa cells [1] = assay: Flow cytometry of cellular uptake of fluorescently labeled polymer–peptide conjugates (median fluorescence intensity relative to control polymer REF); conditions: for uptake relative to control polymer at the highest concentration: highest concentration used; for internalization efficiency compared with the control polymer: HeLa cells, flow cytometry, concentration and temperature not stated at this place (abstract); for cell penetration compared with control polymer (in words): any of the concentrations used, at 4 °C and at 37 °C
Description: The HeLa cell line (LGC Standards, Poland) was cultured in Dulbecco’s modified Eagle medium (DMEM) supplemented with 100 U of penicillin, 100 μg⋅mL^−1 streptomycin, and 10% fetal bovine serum in 25 cm^2 flasks. Cells were cultivated in a humidified incubator at 37 °C with 5% CO2. The chemicals were purchased from Life Technologies/Gibco, Prague, Czech Republic.
The HeLa cell line was incubated with fluorescently labeled polymer–peptide conjugates for 1 h at 4 °C and 37 °C. For measurement at 4 °C, HeLa cells were harvested with 0.05% trypsin (Thermo Fisher Scientific, Czech Republic) at 37 °C for 3 min. Subsequently, cells were washed with 0.5% bovine serum albumin in phosphate buffered saline (0.01 M) (BSA/PBS), pre-cooled for 15 min and incubated with fluorescently labeled polymer–peptide conjugates in the dark for 1 h at 4 °C. After incubation, the cells were washed once with BSA/PBS, centrifuged at 1500 rpm for 3 min and re-suspended in 1 μM Sytox Blue Dead Cell Stain (Thermo Fisher Scientific, Czech Republic) to distinguish live and dead cells. For measurement at 37 °C, HeLa cells were seeded 24 h prior to the experiment on 24-well plates at a density 1.5 × 10^5 cells per well. Polymer–peptide conjugates were then added together with fresh DMEM and incubated at 37 °C in 5% CO2 and humidified atmosphere. Subsequently, cells were washed with BSA/PBS, harvested with 0.05% trypsin at 37 °C for 3 min, transferred to tubes, centrifuged at 1500 rpm for 3 min, and re-suspended in PBS/BSA containing 1 μM Sytox Blue Dead Cell Stain (Thermo Fisher Scientific, Czech Republic). All measurements were acquired using a FACSVerse™ flow cytometer (Becton Dickinson Czechia, s.r.o., Prague, Czech Republic) and analyzed by FlowJo software version 10 (Tree Star Inc., Ashland, OR, USA); the median of fluorescence intensity was determined. The concentration of polymer conjugates was adjusted to the value corresponding to a final concentration of peptide 1000 μM. This stock solution was diluted with PBS to obtain all used concentrations. […] HeLa cells without a polymer were used as a negative control. All samples were measured in duplicates in two independent experiments.
The uptake of the polymer–peptide conjugates incubated with the cells was measured using flow cytometry.

HeLa cells [2] = assay: Alamar Blue cell viability (cytotoxicity)
Description: Cytotoxicity of polymer–peptide conjugates was determined using Alamar Blue® cell viability reagent (Thermo Fischer Scientific, Czech Republic) in HeLa cells according to the manufacturer’s protocol. Cells were seeded into 96-well plates in 100 μL of DMEM 24 h prior to experiment at a density of 5 × 10^3 cells per well. […] […] Then the medium was replaced by 90 μL of fresh medium with 10 μL of Alamar Blue® reagent and incubated for the next 4 h in 5% CO2 at 37 °C. […] The fluorescence intensity was measured using a Synergy Neo plate reader (Bio-Tek, Prague, Czech Republic) with excitation at 550 nm and emission at 590 nm. Non-treated cells were used as a negative control and free pirarubicin as a positive control. All samples were measured in triplicate in three independent experiments. The half maximal inhibitory concentration value IC50 was expressed as a concentration of CPP ± SD and pirarubicin ± SD, respectively. […] In the case of drug bearing polymer conjugates, the concentration varied from 43.2 nM to 44.3 μM of pirarubicin.
Results were plotted as average ± standard deviation (SD). All statistical analysis was performed using GraphPad Prism 5.03. An ANOVA test was followed by Dunnett’s or Turkey’s test. A value of *** p < 0.001, ** p < 0.01, and * p < 0.05 was considered statistically significant. All IC50 (the concentrations of the CPP or drug reducing the cell viability to one half) values were obtained from calculations corresponding to fitting by logistic S-curves.

HeLa cells [3] = assay: Laser scanning confocal microscopy of intracellular uptake and localization
Description: Laser scanning confocal microscopy (LSCM) was used to visualize the intracellular uptake of selected polymer conjugates. HeLa cells were seeded 24 h prior to an experiment (1.5 × 10^5 cells per well) to confocal chambers (1 μ-dishes providing a 35 mm^2 growth area with 500 μL cell culture medium) with four chambers in a 20 mm micro-well and a #1 cover glass (0.13–0.16 mm) (Bio-Port Europe, Prague, Czech Republic). Medium was replaced by fresh medium with dissolved polymer–peptide conjugates and added to confocal chamber and incubated either at 4 °C or at 37 °C for 1 h. After the incubation time, cells were washed twice with PBS and measured by confocal microscopy. Hoechst 33342 was used for visualization of cell nuclei (5 μg·mL^−1, Thermo Fischer Scientific, Czech Republic) and cell membranes were stained with CellMask™ Green (1 μg⋅mL^−1, Thermo Fisher Scientific, Czech Republic) for 1 h before imaging at 4 °C or 10 min at 37 °C. Observation of samples was performed by Olympus IX83 coupled with FV10-ASW software (Olympus, Prague, Czech Republic). The samples were scanned using the 60× oil objective Plan ApoN (1.42 numerical apertures). Dy633-labeled polymers were excited at 637 nm and emitted light was detected through a 650–750 nm filter. For the detection of Hoechst 33342 dye-stained nuclei, an excitation wavelength of 405 nm was used and emitted light was detected through a 420–500 nm filter. CellMask Green-stained cell membranes were excited at 488 nm and the emitted light was detected through a 500–600 nm filter. All samples were measured in duplicate in two independent experiments.
A confocal microscopy study was performed to support and extend the data obtained by flow cytometry. Confocal microscopy imaging was used to map localization of CPP conjugates. The polymer conjugates with the highest cell penetration activity, TAT12 and PEN12, were selected for the confocal microscopy experiments. Conjugate REF was used as a control. The polymers were incubated with HeLa cells for 1, 2, or 4 h at 4 or 37 °C.

[4] = 4 °C (cells precooled 15 min), 50 μM of CPP, up to 4 h
[5] = 37 °C, 50 μM of CPP, 1, 2 or 4 h
[6] = 24 h incubation, Alamar Blue, Dy633-labeled conjugates, mean ± SD, triplicate in three independent experiments, for REF virtual CPP concentration of the same weight concentration, read-out: IC50 (concentration of the CPP reducing the cell viability to one half)

## PFVYLI [PF4]
HeLa cells [1]; HeLa, 4 °C (precooled cells), 1 h, median fluorescence intensity ratio to REF
  increase in uptake relative to REF: up to 2 times
HeLa cells [1]; HeLa, 4 °C, 1 h
  uptake relative to control polymer at the highest concentration: 1.8 times
HeLa cells [1]; HeLa, 37 °C, 1 h
  uptake relative to control polymer at the highest concentration: 1.8 times

## COc1cccc2c1C(=O)c1c(O)c3c(c(O)c1C2=O)C[C@@](O)(C(=O)CO)C[C@@H]3O[C@H]1C[C@H](N)[C@H](O[C@@H]2CCCCO2)[C@H](C)O1 [Pir, Pirarubicin, reference compound]
HeLa cells [2]; Homo sapiens, 24 h incubation, Alamar Blue, expressed as pirarubicin, mean ± SD, triplicate in three independent experiments, read-out: IC50 (concentration of the Pir reducing the cell viability to one half)
  IC50: 1.03 ± 0.3 µg/mL

## GRKKRRQRRR [P-T12-Pir, HPMA copolymer bearing pirarubicin via GFLG and TAT via dodeca(ethylene glycol) spacer]
HeLa cells [2]; 24 h incubation
  IC50 lower compared with P-Pir conjugate without any CPP: more than two
HeLa cells [2]; 24 h incubation, Alamar Blue, expressed as pirarubicin, mean ± SD, triplicate in three independent experiments
  IC50 (concentration of the Pir reducing the cell viability to one half): 18.3 ± 6.2 µg/mL
HeLa cells [2]; 24 h incubation, read-out: concentration of CPP present on the conjugate at IC50 value
  IC50: ~20.7 µM
HeLa cells [2]; 72 h incubation, Alamar Blue
  cytotoxicity (IC50 as pirarubicin) after longer incubation time: 11.1 ± 1.6 µg/mL

## GRKKRRQRRR [TAT12]
HeLa cells [3]; [4]
  cellular localization / internalization by confocal microscopy (in words): partially localized even in the cytosol
HeLa cells [3]; [5]
  cellular localization / internalization by confocal microscopy (in words): localized in cytosol already after 1 h
  presence of the polymer in the cell nuclei (in words): negligible
HeLa cells [1]; HeLa, 4 °C, 1 h, 50 μM of CPP
  penetration efficacy relative to spacer-free conjugate TAT0: 2.8 times

## GRKKRRQRRR [TAT4]
HeLa cells [1]
  internalization efficiency compared with the control polymer: about 40 times
HeLa cells [1]; HeLa, 4 °C, 1 h, 1 μM of CPP
  cell penetration level compared with REF: seven
HeLa cells [1]; HeLa, 37 °C, 1 h, 0.1 μM of CPP
  enhanced cellular uptake (relative fluorescence intensity) compared to REF: 14 times
HeLa cells [2]; [6]
  IC50: 95.3 ± 2.6 µM

## RYIRS [RY4]
HeLa cells [1]; HeLa, 1 h
  cell penetration compared with control polymer (in words): do not penetrate cells better than the control polymer

## VPMLK [VP4]
HeLa cells [1]; HeLa, 1 h
  cell penetration compared with control polymer (in words): do not penetrate cells better than the control polymer

## RRMKWKK [PEN4]
HeLa cells [1]
  internalization efficiency compared with the control polymer: ~15 times
HeLa cells [1]; HeLa, 4 °C, 1 h
  effect of tetra(ethylene glycol) spacer on penetration compared with spacer-free PEN0 (in words): not long enough to improve the penetration
HeLa cells [1]; HeLa, 4 °C, 1 h, 1 and 10 μM of CPP
  uptake compared with TAT4 (in words): slightly outperformed TAT4
HeLa cells [1]; HeLa, 4 °C, 1 h, 25 and 50 μM of CPP
  concentration dependence of relative uptake (in words): did not exhibit any more improvement
HeLa cells [1]; HeLa, 37 °C, 1 h, all measured concentrations
  relative increase of fluorescence intensity compared to REF, versus TAT4 (in words): lower than in the case of TAT4
HeLa cells [2]; [6]
  IC50: 82.9 ± 4.8 µM

## YARAAARQARA [YA4]
HeLa cells [1]; HeLa, 1 h
  cell penetration compared with control polymer (in words): do not penetrate cells better than the control polymer

## RRMKWKK [PEN12]
HeLa cells [3]; [4]
  cellular localization / internalization by confocal microscopy (in words): much less pronounced at 4 °C
HeLa cells [3]; [5]
  cellular localization / internalization by confocal microscopy (in words): lower cell internalization compared with TAT12
HeLa cells [1]; HeLa, 4 °C, 1 h, 25 μM of CPP
  penetration efficacy relative to shorter analog PEN4: two
